Measurements published in US9526705B2, “Lipidated glycosaminoglycan particles and their use in drug and gene delivery for diagnosis and therapy” (Tel-Aviv University Future Technology Development L.P., priority 2001, dated 2016).

Tests used:
B16F10 (mouse melanoma) = assay: Tumor metastasis model: lung metastases after i.v. B16F10 cells; type: in vivo, C57BL/6 mice; settings: day 21
Protocol: C57BL/6 female mice were used, which were 12 weeks old at initiation of the experiment. […] The DDS system was LLG in the form of nano particles. The test system was MMC formulated in the novel DDS of the present invention, denoted MMC/DDS.
Group 1 is a control group of healthy mice that were not inoculated with tumor cells.
B16F10 cells were grown in cell culture flasks. […] The injected dose was 5×10^5 cells in 50 μl PBS.
Treatments were given on days 1, 5 and 9. […] All injected volumes were 0.1 ml. The experiment was terminated 21 days post tumor inoculation. The animals were sacrificed, and the lungs were removed, weighed, and fixed in Bouin's solution. Lung weight increase was calculated using the following formula: Lung weight increase(%)=100×(tumor lung weight−normal lung weight)/normal lung weight Surface metastases were counted by an expert using a dissecting microscope.
Quantitative evaluation of metastases in the lungs can be performed by two independent measurements: actual counting of the metastases in excised and properly fixed lungs; and/or measurement of the increase in the weight of the lungs due to the metastases in the animals injected with tumor cells. Both techniques were implemented in the present study.

[1] = test system: cell line C26 (mouse colon carcinoma); settings: 4 hours exposure, viable cells 24 hours from start, MMC 30 and 50 μg/ml
Source text: This is an inherent multidrug resistant (MDR) line originating from mouse colon carcinoma.

[2] = test system: C-26 cells (mouse colon carcinoma); settings: Run 1
Protocol: Female BALB/c mice which were 8 weeks old at initiation of the experiment were used. The tumor model employed was C-26 cells (originating from mouse colon carcinoma) injected subcutaneously into the right hind footpad. […] The MMC dose was 2 mg/kg body, in both free and DDS formulations and the DDS dose was 1 mg/ml.
To provide the tumor, C-26 cells were grown in cell culture flasks. At day zero, the cells were harvested, washed several times, counted and immediately injected. The injected dose was 8×10^5 cells in 30 μl.
(§1) Treatments were given on days 5, 12 and 19. Administration was by injection into the tail vein. All injected volumes were 0.1 ml.
Parameters measured for Run 1 were retention in circulation, tumor onset, tumor volume, survival. Parameters measured for Run 2 were survival.

[3] = i.v. tail vein, MMC 2 mg/kg
Protocol: Female BALB/c mice which were 8 weeks old at initiation of the experiment were used. […] The MMC dose was 2 mg/kg body, in both free and DDS formulations and the DDS dose was 1 mg/ml.
as §1
At selected periods post-injection, animals receiving drug-containing formulations were bled, and samples were treated according to established protocols. MMC concentration was determined by HPLC assay.

[4] = Efficiency of entrapment in gagomers (absorbency, ELISA plate reader); type: physicochemical
Protocol: The efficiency of entrapment of drugs or other bioactive agents in the gagomers and the kinetics of drug efflux for small molecular weight drugs were determined using absorbency in an ELISA plate reader, with appropriate wavelengths for each given entrapped entity.

[5] = test system: MCF7 cells (human breast carcinoma); assay: BSA-FITC entry into cells, confocal microscopy; type: cell-based; settings: MCF7, 3.3 mg/ml, 25° C., 60 minutes
Protocol: Bovine serum albumin tagged with the fluorescent marker FITC (BSA-FITC) in both free form and entrapped in the DDS was used to determine whether DDS can also induce the entry of large macromolecules into cells. The free and the DDS-entrapped BSA-FITC were incubated at 25° C. for 60 minutes with confluent monolayers of MCF7 cells (originating from human breast carcinoma). MCF-7 cells are reported to have two known receptors for hyaluronic acid—ICAM-1 and CD44. The protein/DDS systems were cleaned from the free protein. The free and the entrapped protein were at the same concentration: 3.3 mg/ml. At the end of the incubation the cells were viewed by means of confocal microscopy.

[6] = calculated from efflux rate constant, 50 minutes incubation
Source text: The independent variable is time. The dependent variable (f) is the percentage of drug released at time=t with respect to the total drug in the system at time t=0.

CO[C@@]12[C@H](COC(N)=O)C3=C(C(=O)C(C)=C(N)C3=O)N1C[C@@H]1N[C@@H]12 [Mitomycin C, mitomycin C]
increase in lung weight, in words (B16F10 (mouse melanoma); saline group close to 400%): almost the same
number of lung metastases versus saline group (B16F10 (mouse melanoma); lungs, MMC 5 mg/Kg): no statistical difference
cell death (compared to untreated control) [1]: under 15%
increase in tumor volume / tumor growth rate ([2]; 3 i.v. doses): not much different than in the saline group
day on which tumor was first detected ([2]; treatments on days 5, 12 and 19, MMC 2 mg/kg): 7 days
retention in circulation [3]: disappears very quickly from the circulation

α-Interferon
Encapsulation Efficiency (%) ([4]; DDS microparticles, insulin concentration 10 mg/ml): 72.5 ± 3.7%

O=C(N[C@H](CO)[C@H](O)c1ccc([N+](=O)[O-])cc1)C(Cl)Cl [Chloramphenicol]
Encapsulation Efficiency (%) By Kinetics ([4]; Micro-gagomers): 30.5 ± 1.9%
Encapsulation Efficiency (%) By Thermodynamics ([4]; Micro-gagomers): 39.3 ± 3.9%
Encapsulation Efficiency (%) By Kinetics ([4]; Nano-gagomers): 47.1 ± 1.5%
Encapsulation Efficiency (%) By Thermodynamics ([4]; Nano-gagomers): 47.4 ± 0.3%

free BSA-FITC: Bovine serum albumin tagged with the fluorescent marker FITC, free form
protein entry into the cells [5]: Some of the protein gained entry into the cell
protein entry into the nucleus [5]: not inside the nucleus

COc1cccc2c1C(=O)c1c(O)c3c(c(O)c1C2=O)C[C@@](O)(C(=O)CO)C[C@@H]3O[C@H]1C[C@H](N)[C@H](O)[C@H](C)O1 [Doxorubicin, doxorubicin]
Encapsulation Efficiency (%) By Kinetics ([4]; Micro-gagomers): 50.2 ± 1.2%
Encapsulation Efficiency (%) By Thermodynamics ([4]; Micro-gagomers): 52.4 ± 6.3%
Encapsulation Efficiency (%) By Kinetics ([4]; Nano-gagomers): 53.6 ± 0.9%
Encapsulation Efficiency (%) By Thermodynamics ([4]; Nano-gagomers): 57.0 ± 3.7%

CC[n+]1c(-c2ccccc2)c2cc(N)ccc2c2ccc(N)cc21 [EtBr, ethidium bromide]
efflux of the entrapped marker in the course of the incubation [6]: ≤ 2%
